Patent US10106558B2, “Azolobenzazine compounds, compositions comprising these compounds and their use for controlling invertebrate pests” (BASF SE, priority 2015, dated 2018)

What was measured:
Format in all cases: in vivo
[1] = test system: boll weevil (Anthonomus grandis); assay: Action on boll weevil, eggs on insect diet in 96-well microtiter plates; conditions: 120 h, 800 ppm, egg and larval mortality visually assessed after 5 days, read-out: mortality in comparison with untreated controls
Outline: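 Diet in 96-well plates was infested with 5-10 A. grandis eggs and sprayed with compounds formulated in 75% water/25% DMSO, at several concentrations, in two replicates. Plates were held 5 days at about 25±1 °C and 75±5% RH. Egg and larval mortality was then scored visually.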

[2] = test system: vetch aphid (Megoura viciae); assay: Action on vetch aphid, broad bean leaf disks in 24-well microtiter plates; conditions: foliar, 120 h, adult aphids on treated leaf disks, 5 days, read-out: mortality in comparison with untreated controls
Method: Example B7: Action on Vetch Aphid (Megoura viciae)
For evaluating control of vetch aphid (Megoura viciae) through contact or systemic means the test unit consisted of 24-well-microtiter plates containing broad bean leaf disks.
The compounds were formulated using a solution containing 75% v/v water and 25% v/v DMSO. Different concentrations of formulated compounds were sprayed onto the leaf disks at 2.5 μl, using a custom built micro atomizer, at two replications.
After application, the leaf disks were air-dried and 5-8 adult aphids placed on the leaf disks inside the microtiter plate wells. The aphids were then allowed to suck on the treated leaf disks and incubated at about 23±1° C. and about 50±5% relative humidity for 5 days. Aphid mortality and fecundity was then visually assessed.

[3] = test system: Orchid Thrips (Dichromothrips corbetti); assay: Action on orchid thrips, floral-immersion technique; conditions: adult thrips, 72 hours after treatment, read-out: mortality in comparison with untreated controls
Outline: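 Lab-colony adult thrips, about 20 per arena, were exposed to whole orchid flower petals dipped in compound diluted in 1:1 acetone:water with 0.01% v/v Kinetic HV and then dried. Arenas were held under continuous light at about 28 °C. Live thrips were counted after 3 days and percent mortality recorded at 72 h post-treatment.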

[4] = test system: Diamond Back Moth (Plutella xylostella); assay: Action on diamond back moth, dipped cabbage leaves; conditions: 3rd instar larvae, 72 hours after treatment, read-out: mortality in comparison with untreated controls
Outline: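 Cabbage leaves dipped in compound in 1:1 water:acetone with 0.01% (vol/vol) surfactant, air-dried, placed on moist filter paper and infested with ten 3rd-instar larvae. Mortality scored 72 hours after treatment; feeding damage rated on a 0-100% scale.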

[5] = test system: Mediterranean fruitfly (Ceratitis capitata); assay: Action on Mediterranean fruitfly, eggs on insect diet in microtiter plates; conditions: 120 h, egg and larval mortality visually assessed after 5 days, read-out: mortality in comparison with untreated controls
Outline: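 Microtiter plates held insect diet plus 50-80 C. capitata eggs; compounds in 75% water/25% DMSO were sprayed onto the diet at several concentrations, two replicates. Plates were kept at about […] and […] relative humidity for 5 days, then egg and larval mortality was scored visually.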

[6] = test system: Silverleaf Whitefly (Bemisia argentifolii) (Adults); assay: Action on silverleaf whitefly adults, sprayed cotton plants; conditions: 72 h, 3 days after treatment, read-out: mortality in comparison with untreated controls
Method: Example B4: Action on Silverleaf Whitefly (Bemisia argentifolii) (Adults)
The active compounds were formulated by a Tecan liquid handler in 100% cyclohexanone as a 10,000 ppm solution supplied in tubes. The 10,000 ppm solution was serially diluted in 100% cyclohexanone to make interim solutions. These served as stock solutions for which final dilutions were made by the Tecan in 50% acetone:50% water (v/v) into 5 or 10 ml glass vials. A nonionic surfactant (Kinetic®) was included in the solution at a volume of 0.01% (v/v). The vials were then inserted into an automated electrostatic sprayer equipped with an atomizing nozzle for application to plants/insects.
Cotton plants at the cotyledon stage (one plant per pot) were sprayed by an automated electrostatic plant sprayer equipped with an atomizing spray nozzle. The plants were dried in the sprayer fume hood and then removed from the sprayer. Each pot was placed into a plastic cup and about 10 to 12 whitefly adults (approximately 3-5 days old) were introduced. The insects were collected using an aspirator and a nontoxic Tygon® tubing connected to a barrier pipette tip. The tip, containing the collected insects, was then gently inserted into the soil containing the treated plant, allowing insects to crawl out of the tip to reach the foliage for feeding. Cups were covered with a reusable screened lid. Test plants were maintained in a growth room at about 25° C. and about 20-40% relative humidity for 3 days, avoiding direct exposure to fluorescent light (24 hour photoperiod) to prevent trapping of heat inside the cup. Mortality was assessed 3 days after treatment, compared to untreated control plants.

[7] = test system: tobacco budworm (Heliothis virescens); assay: Action on tobacco budworm, eggs on insect diet in 96-well microtiter plates; conditions: 120 h, egg and larval mortality visually assessed after 5 days, read-out: mortality in comparison with untreated controls
Outline: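 Compounds in 25% DMSO/water sprayed (10 μl) onto insect diet holding 15–25 H. virescens eggs, two replicates at several concentrations. Held 5 days at about 28±1 °C, 80±5% RH. Egg and larval mortality scored visually.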

[8] = test system: Southern Armyworm (Spodoptera eridania), 2nd instar larvae; assay: Action on southern armyworm 2nd instar larvae, sprayed lima bean plants; conditions: 96 h, 4 days after treatment, read-out: mortality in comparison with untreated controls
Outline: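 Lima bean plants (Sieva, 1st true leaf) sprayed electrostatically with compound in 50% acetone/water plus 0.01% nonionic surfactant, dried, then infested with 10–11 larvae in bags. Held at about 25 °C, 20–40% RH; mortality and reduced feeding scored 4 days after treatment versus untreated plants.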

[9] = test system: yellow fever mosquito (Aedes aegypti); assay: whole plant or invertebrate; conditions: 48 h, larval mortality visually assessed after 2 days, read-out: mortality in comparison with untreated controls
Outline: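 Freshly hatched larvae (5-15 per well) held in 200 μl tap water; compounds formulated in 25% DMSO/water and 2.5 μl sprayed at several concentrations, two replicates. Plates kept 2 days at 28 °C, 80% RH, then larval mortality scored visually.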

CC(C)c1ccccc1N1C(=O)CS/C1=N\N=C\c1ccc2c(ccc3c2ncn3-c2ccc(C(F)(F)F)nn2)n1 [Compound C-10, (2Z)-3-(2-isopropylphenyl)-2-[(E)-[3-[6-(trifluoromethyl)pyridazin-3-yl]imidazo[4,5-f]quinolin-7-yl]methylenehydrazono]thiazolidin-4-one]
≥ 75%: mortality at 800 ppm [1] | mortality at 800 ppm [2] | mortality at 500 ppm [3] | mortality at 500 ppm [4] | mortality at 800 ppm [5] | mortality at 500 ppm [6] | mortality at 800 ppm [7] | mortality at 500 ppm [8]

CC(C)c1ccccc1N1CCS/C1=N/N=C/c1ccc2c(ccc3c2ncn3-c2ccc(OC(F)(F)F)cc2)n1 [Compound C-21, (E)-3-(2-isopropylphenyl)-N-[(E)-[3-[4-(trifluoromethoxy)phenyl]imidazo[4,5-f]quinolin-7-yl]methyleneamino]thiazolidin-2-imine]
≥ 75%: mortality at 800 ppm [1] | mortality at 800 ppm [9] | mortality at 800 ppm [2] | mortality at 500 ppm [3] | mortality at 500 ppm [4] | mortality at 800 ppm [5] | mortality at 500 ppm [6] | mortality at 800 ppm [7] | mortality at 500 ppm [8]

CC(C)c1ccccc1/N=C1\SCC(=O)N1/N=C/c1cc2ccc3c(ncn3-c3ccc(OC(F)(F)F)cc3)c2cn1 [Compound C-28, (2Z)-2-(2-isopropylphenyl)imino-3-[(E)-[3-[4-(trifluoromethoxy)phenyl]imidazo[4,5-h]isoquinolin-7-yl]methyleneamino]thiazolidin-4-one]
≥ 75%: mortality at 800 ppm [1] | mortality at 800 ppm [9] | mortality at 800 ppm [2] | mortality at 500 ppm [4] | mortality at 800 ppm [5] | mortality at 800 ppm [7] | mortality at 500 ppm [8]
